Values joined by “and” are separate entries in the source; they are usually repeats but may differ in a detail not shown here. Equal values may be shown once.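 All cell lines were grown in 96-well plates and treated with compound for 48 hours. The concentration for 50% growth inhibition is given as GI50.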 Active and inactive are the calls of the source. Cut-off read from the data, not from the text of the source: active = GI50 up to about 1.1 µM and inactive = higher.
How the values were obtained:
Assay in all cases: NCI tumour cell line growth inhibition, 48 h
OVCAR-5 = tested on: OVCAR-5
SN12C = tested on: SN12C
SF-539 = tested on: SF-539
SR = tested on: SR
MDA-N = tested on: MDA-N
NCI/ADR-RES = tested on: NCI/ADR-RES
BT-549 = tested on: BT-549
OVCAR-8 = tested on: OVCAR-8
A498 = tested on: A498
HOP-62 = tested on: HOP-62
MCF7 = tested on: MCF7
ACHN = tested on: ACHN
SW-620 = tested on: SW-620
OVCAR-4 = tested on: OVCAR-4
K562 = tested on: K562
HCT-116 = tested on: HCT-116
PC-3 = tested on: PC-3
RXF 393 = tested on: RXF 393
EKVX = tested on: EKVX
DU-145 = tested on: DU-145

Measured: GI50

CN1CCN(c2n[nH]c(=O)c3c2nnn3C2CCCCC2)CC1
inactive: OVCAR-5 > 100 µM | SN12C > 100 µM | SF-539 > 100 µM | SR > 100 µM | MDA-N > 100 µM | NCI/ADR-RES > 100 µM | BT-549 > 100 µM | OVCAR-8 > 100 µM | A498 > 100 µM | HOP-62 > 100 µM | MCF7 > 100 µM | ACHN > 100 µM | SW-620 > 100 µM | OVCAR-4 > 100 µM | K562 > 100 µM | HCT-116 > 100 µM | PC-3 > 100 µM | RXF 393 > 100 µM | EKVX > 100 µM | DU-145 > 100 µM

CC(C)=CCNc1ncnc2c1ncn2CCC(=O)OC(C)(C)C
inactive: OVCAR-5 > 100 µM | SN12C > 100 µM | SF-539 > 100 µM | SR 52.2 µM | MDA-N > 100 µM | NCI/ADR-RES 42.9 µM | BT-549 37.5 µM | OVCAR-8 > 100 µM | A498 > 100 µM | HOP-62 > 100 µM | MCF7 > 100 µM | ACHN > 100 µM | SW-620 > 100 µM | OVCAR-4 4.81 µM | K562 18.4 µM | HCT-116 > 100 µM | PC-3 34.8 µM | RXF 393 36.1 µM | DU-145 > 100 µM

O=S(=O)(O)CCCC1S(=O)(=O)OCCOS1(=O)=O
inactive: OVCAR-5 > 100 µM | SF-539 > 100 µM | SR > 100 µM | MDA-N > 100 µM | NCI/ADR-RES > 100 µM | BT-549 > 100 µM | OVCAR-8 > 100 µM | A498 > 100 µM | HOP-62 > 100 µM | MCF7 > 100 µM | ACHN > 100 µM | SW-620 > 100 µM | OVCAR-4 > 100 µM | HCT-116 > 100 µM | PC-3 > 100 µM | RXF 393 > 100 µM | EKVX > 100 µM | DU-145 > 100 µM

C=CC1(CC/C(=C\[N+](=O)[O-])c2ccc(OC)c(OC)c2)OCC(C)(C)CO1
inactive: OVCAR-5 16.1 µM | SN12C 21 µM | SR 3.61 µM | MDA-N 21.8 µM | NCI/ADR-RES 13.9 µM | BT-549 13.8 µM | OVCAR-8 15.2 µM | A498 > 10 µM | HOP-62 18.3 µM | MCF7 13.9 µM | ACHN 17.8 µM | SW-620 26.9 µM | OVCAR-4 11.6 µM | K562 6.61 µM | HCT-116 18.9 µM | PC-3 25.6 µM | RXF 393 12.9 µM | EKVX 18 µM | DU-145 16.7 µM

Cc1ccc(C(=C2Sc3ccccc3S2)C(=C2Sc3ccccc3S2)c2ccc(C)s2)s1
inactive: OVCAR-5 > 100 µM | SN12C > 100 µM | SR 47.5 µM | MDA-N > 100 µM | NCI/ADR-RES > 100 µM | BT-549 > 100 µM | OVCAR-8 > 100 µM | A498 > 100 µM | HOP-62 > 100 µM | MCF7 > 100 µM | ACHN > 100 µM | SW-620 > 100 µM | OVCAR-4 > 100 µM | K562 > 100 µM | HCT-116 > 100 µM | PC-3 > 100 µM | RXF 393 > 100 µM | EKVX > 100 µM | DU-145 > 100 µM

O=[N+]([O-])c1ccccc1CSc1nc(O)c2nc[nH]c2n1
inactive: OVCAR-5 > 100 µM and 92 µM | SN12C > 100 µM and 66.4 µM | SF-539 > 100 µM | SR > 100 µM | MDA-N > 100 µM | NCI/ADR-RES > 100 µM | BT-549 > 100 µM | OVCAR-8 > 100 µM | A498 > 100 µM | HOP-62 > 100 µM | MCF7 > 100 µM and > 99.3 µM | ACHN > 100 µM | SW-620 > 100 µM | K562 > 100 µM | HCT-116 > 100 µM | PC-3 79.8 µM | RXF 393 > 100 µM | EKVX 51.8 µM | DU-145 > 100 µM

CN(CCNC(=O)c1cc(-c2ccccc2)nc2ccccc12)CCNC(=O)c1cc(-c2ccccc2)nc2ccccc12
inactive: OVCAR-5 8.55 µM | SN12C > 100 µM | SF-539 7.71 µM | SR 2.98 µM | MDA-N 11.1 µM | NCI/ADR-RES > 100 µM | BT-549 > 100 µM | OVCAR-8 > 28.1 µM | A498 12.2 µM | HOP-62 26.1 µM | MCF7 3.87 µM | ACHN > 47 µM | SW-620 6.12 µM | K562 3.55 µM | HCT-116 8.05 µM | PC-3 10.3 µM | RXF 393 8.67 µM | EKVX 15.9 µM | DU-145 12.5 µM
